Structures can show the parent of a compound that is named as a salt.

As usually defined, the IC50 is the concentration that gives 50% inhibition. A low value points to inhibition by little substance. What is called ED50 is the midpoint of the dose-response relation. Low readings indicate greater potency, high ones weaker potency.

Experiment [1] has as its target Proton Pump (H^+/K^+-ATPase) (Sus scrofa, UniProt P19156). The experiment in a line: Inhibitory effects on proton pump (H^+/K^+-ATPase) activity. The class given is biochemical. The conditions noted are these: hog gastric vesicles; K^+ stimulated H^+/K^+-ATPase activity; 30 minutes at 37° C.
Experiment [2] relates to basal gastric acid secretion. The experiment in a line: Inhibitory effects on basal gastric acid secretion in pylorus-ligated rats (Shay's rat model). The class given is in vivo, Sprague Dawley (SD) rats. The conditions noted are these: oral, one hour before pylorus ligation, total acid output 5 hours after ligation. The method, then: Inhibitory effects of the compounds of the present invention on basal gastric acid secretion were performed according to Shay's rat model (Shay, H., et al., 1945, gastroenterology, 5, 43-61). Male Sprague Dawley (SD) rats (200±10 g body weight) were divided into […] (n=5) and fasted for 24 hours with free access to water. Control group was orally administered with 0.5% methylcellulose alone and the other groups were orally administered with test compounds suspended in 0.5% methylcellulose solution at doses of 1, 3 and 10 mg/kg/5 ml one hour before pylorus ligation.
Under ether anesthesia, the abdomens of the rats were incised and then the pylorus was ligated. 5 hours after ligation, the animals were sacrificed, and the gastric contents were collected. The collected contents were centrifuged at 1,000×g for 10 minutes to obtain the gastric juice. Total acid output was measured by 0.01N NaOH volume (ueq/ml) for automatic titration of the gastric juice to pH 7.0 and the ED50s of test compounds were calculated using the Litchfield-Wilcoxon method. % inhibitory activity was calculated from the following equation and the results are shown in Table 2. % inhibitory activity of test compound=(total acid output of control group−total acid output of the group treated with test compounds)/total acid output of control group×100

For experiment [3], the target named is T1, hog gastric H^+/K^+-ATPase (Sus scrofa, UniProt P19156).
T1 construct: from tissue; host or cells: hog gastric fundic mucosa; gastric vesicles (microsomes), lyophilized
T1 sequence (P19156 2-1034 limits assumed): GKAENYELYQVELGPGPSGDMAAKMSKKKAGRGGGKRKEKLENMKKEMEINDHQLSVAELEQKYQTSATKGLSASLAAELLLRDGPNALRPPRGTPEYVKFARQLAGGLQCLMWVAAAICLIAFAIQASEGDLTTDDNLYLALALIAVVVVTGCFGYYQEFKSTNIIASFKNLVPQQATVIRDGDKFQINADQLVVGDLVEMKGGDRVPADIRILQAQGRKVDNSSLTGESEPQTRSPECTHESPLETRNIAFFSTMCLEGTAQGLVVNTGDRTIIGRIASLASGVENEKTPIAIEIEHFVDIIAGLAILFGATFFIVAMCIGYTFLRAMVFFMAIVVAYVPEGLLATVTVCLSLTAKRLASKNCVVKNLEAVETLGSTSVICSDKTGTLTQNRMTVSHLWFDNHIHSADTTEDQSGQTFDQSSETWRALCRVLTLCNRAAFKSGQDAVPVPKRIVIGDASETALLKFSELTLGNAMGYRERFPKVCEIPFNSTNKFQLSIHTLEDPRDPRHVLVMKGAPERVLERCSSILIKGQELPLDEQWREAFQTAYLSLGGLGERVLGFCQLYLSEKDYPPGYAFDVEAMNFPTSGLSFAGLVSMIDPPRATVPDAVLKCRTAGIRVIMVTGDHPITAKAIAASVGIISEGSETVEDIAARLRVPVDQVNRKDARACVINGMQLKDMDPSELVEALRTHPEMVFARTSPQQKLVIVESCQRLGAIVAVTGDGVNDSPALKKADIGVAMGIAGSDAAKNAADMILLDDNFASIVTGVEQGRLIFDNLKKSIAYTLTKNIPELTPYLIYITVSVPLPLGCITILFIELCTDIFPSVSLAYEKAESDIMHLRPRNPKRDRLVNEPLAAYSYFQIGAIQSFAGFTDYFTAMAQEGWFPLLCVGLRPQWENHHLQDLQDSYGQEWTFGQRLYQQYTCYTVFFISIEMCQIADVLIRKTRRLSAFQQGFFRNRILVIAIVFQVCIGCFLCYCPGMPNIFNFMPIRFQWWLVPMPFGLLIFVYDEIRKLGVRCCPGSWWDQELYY
T1 sequence (P18434 whole entry partner): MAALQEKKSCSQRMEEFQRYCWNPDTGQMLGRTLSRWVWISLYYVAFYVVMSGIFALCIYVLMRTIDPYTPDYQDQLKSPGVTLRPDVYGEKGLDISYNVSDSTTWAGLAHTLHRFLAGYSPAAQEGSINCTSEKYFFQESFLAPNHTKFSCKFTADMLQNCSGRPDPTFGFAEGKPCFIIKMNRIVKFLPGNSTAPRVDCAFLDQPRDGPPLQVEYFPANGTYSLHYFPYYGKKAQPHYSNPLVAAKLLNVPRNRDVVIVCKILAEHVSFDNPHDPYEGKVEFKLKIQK
The experiment can be described thus: Reversible inhibition of hog gastric H^+/K^+-ATPase (washout method). Format: biochemical. The method, then:
3-1. Preparation of Gastric Vesicles
[…]. IX. Fraction and purification of K-ATPase-containing vesicles by zonal centrifugation and free-flow electrophoresis techinque. Biochem. Biophy. Acta. (BBA)-Biomembranes 465, 311-330, 1977). This matertal was lyophilized and stored at −70° C. The protein content of gastric vesicles was determined by the Bradford method using bovine serum albumin as a standard (Bradford M M, A rapid and sensitive method for the quantitation of microgram quantities of protein utilizing the principle of protein-dye binding. Anal Biochem. 72, 248-254, 1976).
3-2. Determination of Reversible Inhibition of Hog Gastric H^+/K^+-ATPase
Activity of H^+/K^+-ATPase in hog microsome (lyophilized vesicle) was measured by the inorganic phosphate released from ATP using an one-step calorimetric detection method at the concentration at which the test compounds have 50% inhibition of the proton pump (Chan K M, Delfert D, and Junger K D, A direct calorimetric assay for Ca^2+-stimulated ATPase activity. Anal Biochem, 157, 375-380, 1986). The mode of action of test compounds on H^+/K^+-ATPase was investigated according to the Washout method (Beil W, Staar U, and Sewing K F, Substituted thieno[3,4-d]imidazoles, a novel group of H^+/K+-ATPase inhibitors. Differentiation of their inhibition charactertstics from those of omeprazole. Eur. J. Pharmacol., 187, 455-67, 1990). […]

Proton Pump (H^+/K^+-ATPase), sequence (P19156 2-1034 limits assumed): as the sequence (P19156 2-1034 limits assumed) above
Proton Pump (H^+/K^+-ATPase), sequence (P18434 whole entry partner): as the sequence (P18434 whole entry partner) above

`Cc1c(C)n(Cc2cccc(F)c2)c2c(N3CCc4ccccc4C3)nccc12.Cl` [Example 480, 1-(3-fluorobenzyl)-7-(1,2,3,4-tetrahydroisoquinolin-2-yl)-2,3-dimethyl-1H-pyrrolo[2,3-c]pyridine hydrochloride]: in experiment [1], the midpoint of inhibition, the IC50, lay at 32 nM. This compound had an ED50 in experiment [2] of 1.8 mg/kg. Further, the “inhibition of H^+/K^+-ATPase activity after washout” value in experiment [3] (after washout, compared with non-treated group) is “did not inhibit”. Further, the “inhibition of H^+/K^+-ATPase activity before washout” value in experiment [3] (before washout, test compound at the concentration of 50% inhibition of the proton pump) came to 50%.

`Cc1nc(Cn2c(C)c(C)c3ccnc(N4CCc5ccccc5C4)c32)cs1.Cl` [Example 474, 1-(2-methylthiazol-4-ylmethyl)-7-(1,2,3,4-tetrahydroisoquinolin-2-yl)-2,3-dimethyl-1H-pyrrolo[2,3-c]pyridine hydrochloride] yielded an IC50 in experiment [1] of 110 nM. Besides, the 50% effect level in experiment [2] (ED50) was put at a dose of 11.9 mg/kg.

`Cc1c(C)n(Cc2ccccc2)c2c(N(C)Cc3ccc(F)cc3)nccc12` [Example 141, 1-benzyl-7-[N-(4-fluorobenzyl)-N-methyl]amino-2,3-dimethyl-1H-pyrrolo[2,3-c]pyridine hydrochloride]: the IC50 in experiment [1] amounted to 64 nM. Also, the ED50 in experiment [2] turned out to be 2.3 mg/kg.

For the compound `CCCn1c(C)c(C)c2ccnc(N3CCc4ccccc4C3)c21.Cl` [Example 473, 1-propyl-7-(1,2,3,4-tetrahydroisoquinolin-2-yl)-2,3-dimethyl-1H-pyrrolo[2,3-c]pyridine hydrochloride], in experiment [1], half-maximal inhibition (IC50) was put at 470 nM. The same compound displayed an ED50 in experiment [2] of 2.8 mg/kg.

Compound `CCCn1c(C)c(C)c2ccnc(NCc3ccc(Cl)cc3)c21.Cl` [Example 229, 7-(4-chlorobenzylamino)-2,3-dimethyl-1-propyl-1H-pyrrolo[2,3-c]pyridine hydrochloride] yielded an IC50 in experiment [1] of 240 nM. In experiment [2], this compound came in with a median effective dose (ED50) of 2.2 mg/kg.

The values are drawn from US7662832B2, “Pyrrolo[2,3-c]pyridine derivatives and processes for the preparation thereof” (priority 2004, dated 2010).
